{
  "source": "patent US6472403B2",
  "about": "“αV integrin receptor antagonists” (Merck & Co., Inc., priority 2000, dated 2002)",
  "origin": "cited, not measured here",
  "test_system": "postmenopausal osteoporotic women",
  "conditions": "median of 22 months of treatment",
  "data": [
    {"smiles": "CC[C@H](C)[C@H](NC(=O)[C@H](CCC(=O)O)NC(=O)[C@H](CO)NC(=O)[C@@H](NC(=O)[C@@H](N)CO)C(C)C)C(=O)N[C@@H](CCC(N)=O)C(=O)N[C@@H](CC(C)C)C(=O)N[C@@H](CCSC)C(=O)N[C@@H](Cc1cnc[nH]1)C(=O)N[C@@H](CC(N)=O)C(=O)N[C@@H](CC(C)C)C(=O)NCC(=O)N[C@@H](CCCCN)C(=O)N[C@@H](Cc1cnc[nH]1)C(=O)N[C@@H](CC(C)C)C(=O)N[C@@H](CC(N)=O)C(=O)N[C@@H](CO)C(=O)N[C@@H](CCSC)C(=O)N[C@@H](CCC(=O)O)C(=O)N[C@@H](CCCN=C(N)N)C(=O)N[C@H](C(=O)N[C@@H](CCC(=O)O)C(=O)N[C@@H](Cc1c[nH]c2ccccc12)C(=O)N[C@@H](CC(C)C)C(=O)N[C@@H](CCCN=C(N)N)C(=O)N[C@@H](CCCCN)C(=O)N[C@@H](CCCCN)C(=O)N[C@@H](CC(C)C)C(=O)N[C@@H](CCC(N)=O)C(=O)N[C@@H](CC(=O)O)C(=O)N[C@H](C(=O)N[C@@H](Cc1cnc[nH]1)C(=O)N[C@@H](CC(N)=O)C(=O)N[C@@H](Cc1ccccc1)C(=O)O)C(C)C)C(C)C", "note": "[hPTH(1-34)]", "values": [
      {"measurement": "reduction in nonvertebral fractures", "value": 54, "unit": "%"},
      {"measurement": "reduction in spine fractures", "value": "≥ 65", "unit": "%"}
    ]}
  ]
}
